Experimental data: patent publication US20090318468A1, “PYRAZOLE COMPOUNDS 436” (AstraZeneca AB, priority 2008, published 2009)

Columns and labels:
[1] = Clearance (pharmacokinetics) in rats; format: in vivo; settings: rat, whole blood, male rats, dose 0.927 mg/kg (2 umol/kg); for Vd: read-out: Vss
Procedure: For the rat dose of 0.927 mg/kg (2 umol/kg), the compounds were formulated in 20% DMA:80% sorensens buffer pH 5 at 1 umol/ml. Each formulation was dosed (2 mL/kg) to four male rats (250-300 g) which had free access to food. Blood samples were taken via the tail vein at 5 and 20 minutes, and 1 and 4 hours post dose from 2 rats, and at 10 and 40 minutes, and 2 and 6 hours from the other 2 rats. Terminal samples were taken at 12 hours from the first pair of rats and 24 hours from the second pair. The blood samples were diluted 1:1 with water prior to analysis.
(§1) A set of 10 calibration standards covering the concentration range (0.001 umol/L to 10 umol/L) were prepared by spiking blank matrix (1:1 blood:water). The samples and standards were extracted using a solid phase extraction plate, blown down under nitrogen, and then reconstituted in methanol:water (20:80). The samples were analysed using LC-MSMS and the results obtained were used to determine the area under the curve from time 0 to infinity [AUC0-inf (ug.hr/ml)], clearance [Cl (ml/min/kg)] and the steady state volume distribution [Vss (L/kg)] for each compound.

[2] = Protein binding by equilibrium dialysis (rat); format: in vitro ADME; settings: 20 μM compound, 10% plasma, 37° C., read-out: % free (protein binding)
Procedure: (§2) Protein binding is determined by equilibrium dialysis. A 20 μM concentration of compound is dialyzed against 10% plasma at a temperature of 37° C. for 18 h. The resulting samples are analyzed using generic HPLC-UV methodology coupled with mass spectral peak identification. The reported K1 value is the first apparent association constant [proteináligand]/([protein][ligand]), all concentrations being measured in moles/liter (J. Med. Chem., 2006, 49(23), 6672-6682).
(§3) Protein binding can be measured in a high-throughput screen by equilibrium dialysis combined with liquid chromatography and mass spectrometry (Wan, H. and Rehngren, M., J. Chromatogr. A 2006, 1102, 125-134).

[3] = molecular target: T1, human cytochrome P450 (CYP) 2D6 (Homo sapiens, UniProt P10635); experiment: Cytochrome P450 Inhibition Assay, CYP 2D6; format: in vitro ADME; settings: test compound 0.1-10 μM, substrate MAMC
T1 construct: made in house; host or cells: yeast (microsomal fraction)
Procedure: (§4) Cytochrome P450 Inhibition Assay
The inhibitory potential (IC50) of test compounds against 5 human cytochrome P450 (CYP) isoforms (1A2, 2C9, 2C19, 3A4 and 2D6) was assessed using an automated fluorescent end point in vitro assay modified from Crespi (Crespi and Stresser, J Pharmacol Toxicol Methods 2000, 44: 325-331). Microsomal subcellular fractions prepared from Yeast cell lines expressing each human CYP isoform were used as an enzyme source in this assay. The activity of the 5 major human CYPs was determined from the biotransformation of a number of coumarin substrates to fluorescent metabolites, in the presence of NADPH. […] Stock solutions of each CYP, with its respective substrate, were prepared in phosphate buffer pH 7.4 (see Table 1) and 178 μl was added to the well of a black solid, flat bottom, 300 μl 96 well microtitre plate (Corning Costar). […] The appropriate solvent controls and substrate blanks were included in each experiment to assess control activity and identify any inherent fluorescence due to the test compounds. […] The plates were read on a fluorimeter (Spectrafluor Plus) at the appropriate excitation and emission wavelengths (listed in Table 2) and the percent activity, corrected for control, was plotted against the test compound concentration.

[4] = Clearance (pharmacokinetics) in dogs; format: in vivo; settings: dog, whole blood, dose 0.927 mg/kg (2 umol/kg); for Vd: read-out: Vss
Procedure: For the dog dose of 0.927 mg/kg (2 umol/kg), the compounds were formulated in 10% DMSO:90% hydroxyl-propyl-β-cyclodextrin (25% w/v) in sorensens buffer pH 5 at 2 umol/ml. Each formulation was dosed (1 mL/kg) to a male and female dog (8-15 kg) which had been fasted overnight. Blood samples were taken via the jugular vein at 5, 10, 20 and 40 minutes, and 1, 2, 4, 6, 12 and 24 hours post dose. The blood samples were diluted 1:1 with water prior to anaylsis.
as §1

[5] = molecular target: T2, human cytochrome P450 (CYP) 2C19 (Homo sapiens, UniProt P33261); experiment: Cytochrome P450 Inhibition Assay, CYP 2C19; format: in vitro ADME; settings: test compound 0.1-10 μM, substrate MFC; read-out: Ic50 2C19
T2 construct: made in house; host or cells: yeast (microsomal fraction)
Procedure: as §4
(§5) The inhibitory potential (IC50) of test compounds against 5 human cytochrome P450 (CYP) isoforms (1A2, 2C9, 2C19, 3A4 and 2D6) was assessed using an automated fluorescent end point in vitro assay modified from Crespi (Crespi and Stresser, J Pharmacol Toxicol Methods 2000, 44: 325-331). Microsomal subcellular fractions prepared from Yeast cell lines expressing each human CYP isoform were used as an enzyme source in this assay. The activity of the 5 major human CYPs was determined from the biotransformation of a number of coumarin substrates to fluorescent metabolites, in the presence of NADPH. […] Stock solutions of each CYP, with its respective substrate, were prepared in phosphate buffer pH 7.4 (see Table 1) and 178 μl was added to the well of a black solid, flat bottom, 300 μl 96 well microtitre plate (Corning Costar). […] After pre-incubating at 37° C. for 5 min the reactions were started with addition of NADPH (20 μl, concentration shown in Table 1). The final solvent content in each incubation was <=2% (1% from the test compound and a maximum of 1% from the substrate). The appropriate solvent controls and substrate blanks were included in each experiment to assess control activity and identify any inherent fluorescence due to the test compounds. In addition, known inhibitors of each CYP were included as positive controls (see Table 3 for inhibitor concentrations and expected IC50 ranges). The reactions were stopped at defined timepoints (see Table 1) by quenching with 100 μl of solvent (acetonitrile:0.5M Tris buffer 80:20 v/v). The plates were read on a fluorimeter (Spectrafluor Plus) at the appropriate excitation and emission wavelengths (listed in Table 2) and the percent activity, corrected for control, was plotted against the test compound concentration.

[6] = molecular target: T3, human cytochrome P450 (CYP) 2C9 (Homo sapiens, UniProt P11712); experiment: Cytochrome P450 Inhibition Assay, CYP 2C9; format: in vitro ADME; settings: test compound 0.1-10 μM, substrate MFC
T3 construct: made in house; host or cells: yeast (microsomal fraction)
Procedure: as §4
as §5, with “Microsomal” for “The inhibitory potential (IC50) of test compounds against 5 human cytochrome P450 (CYP) isoforms (1A2, 2C9, 2C19, 3A4 and 2D6) was assessed using an automated fluorescent end point in vitro assay modified from Crespi (Crespi and Stresser, J Pharmacol Toxicol Methods 2000, 44: 325-331). Microsomal”, “The reactions were stopped at defined timepoints (see Table 1) by quenching with 100 μl of solvent (acetonitrile:0.5M Tris buffer 80:20 v/v).” left out

[7] = Protein binding by equilibrium dialysis (human); format: in vitro ADME; settings: 20 μM compound, 10% plasma, 37° C., read-out: % free (protein binding)
Procedure: as §2, §3

T2 sequence (P33261 whole entry): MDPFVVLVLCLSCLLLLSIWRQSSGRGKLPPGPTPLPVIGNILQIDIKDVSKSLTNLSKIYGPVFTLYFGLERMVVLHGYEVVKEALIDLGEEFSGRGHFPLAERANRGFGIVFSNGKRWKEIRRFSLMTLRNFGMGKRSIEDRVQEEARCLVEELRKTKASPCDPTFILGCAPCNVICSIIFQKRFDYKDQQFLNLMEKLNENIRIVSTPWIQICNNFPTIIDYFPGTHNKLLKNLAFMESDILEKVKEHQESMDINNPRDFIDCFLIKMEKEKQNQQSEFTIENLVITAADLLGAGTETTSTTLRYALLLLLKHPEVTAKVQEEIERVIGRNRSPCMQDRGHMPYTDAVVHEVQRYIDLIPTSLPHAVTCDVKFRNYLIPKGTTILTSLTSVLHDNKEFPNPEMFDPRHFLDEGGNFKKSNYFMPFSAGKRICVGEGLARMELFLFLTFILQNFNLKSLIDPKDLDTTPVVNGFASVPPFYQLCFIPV
T1 sequence (P10635 whole entry): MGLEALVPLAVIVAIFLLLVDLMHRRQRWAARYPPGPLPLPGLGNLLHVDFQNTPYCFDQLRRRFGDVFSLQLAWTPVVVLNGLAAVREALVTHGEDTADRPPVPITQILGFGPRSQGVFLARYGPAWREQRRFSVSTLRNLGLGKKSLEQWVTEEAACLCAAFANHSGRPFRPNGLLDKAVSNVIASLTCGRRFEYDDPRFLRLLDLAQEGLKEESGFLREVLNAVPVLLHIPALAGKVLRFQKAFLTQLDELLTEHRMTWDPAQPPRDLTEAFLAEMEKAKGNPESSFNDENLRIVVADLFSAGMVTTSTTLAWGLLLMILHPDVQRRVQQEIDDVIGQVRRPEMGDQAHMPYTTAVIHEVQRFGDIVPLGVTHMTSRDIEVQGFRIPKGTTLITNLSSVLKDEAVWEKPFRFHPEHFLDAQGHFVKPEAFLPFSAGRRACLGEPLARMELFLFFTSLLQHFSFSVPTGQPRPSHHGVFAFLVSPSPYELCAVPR
T3 sequence (P11712 whole entry): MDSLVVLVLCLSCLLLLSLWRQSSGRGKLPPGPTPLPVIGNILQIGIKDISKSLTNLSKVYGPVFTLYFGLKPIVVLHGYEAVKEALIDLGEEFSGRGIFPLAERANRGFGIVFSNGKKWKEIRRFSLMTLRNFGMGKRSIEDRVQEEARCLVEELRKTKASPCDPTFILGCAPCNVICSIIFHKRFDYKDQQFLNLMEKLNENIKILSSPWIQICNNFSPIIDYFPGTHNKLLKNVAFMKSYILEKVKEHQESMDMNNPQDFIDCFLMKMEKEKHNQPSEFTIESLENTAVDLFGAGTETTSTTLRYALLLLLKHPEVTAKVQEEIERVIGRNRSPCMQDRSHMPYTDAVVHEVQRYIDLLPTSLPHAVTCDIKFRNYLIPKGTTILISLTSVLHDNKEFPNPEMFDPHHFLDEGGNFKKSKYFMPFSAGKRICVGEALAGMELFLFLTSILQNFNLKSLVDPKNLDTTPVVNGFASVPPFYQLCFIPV

**Q.** With `COc1cc(CCc2cc(NC(=O)c3ccc(N4CCN(C)[C@@H](C)C4)cc3)[nH]n2)cc(OC)c1` [Example 1a, (S)—N-(3-(3,5-Dimethoxyphenethyl)-1H-pyrazol-5-yl)-4-(3,4-dimethylpiperazin-1-yl)benzamide] as the molecule, how does the AUC(0-inf) [1] read?
**A.** 254 ng·h/mL

**Q.** What about the clearance [1] of the same molecule?
**A.** 60.9 mL/min/kg

**Q.** What about the Vd [1] of the same molecule?
**A.** 2.58 L/kg

**Q.** What about the fraction unbound at 18 h, 20 μM [2] of the same molecule?
**A.** 0.0091

**Q.** And the IC50 [3]?
**A.** > 10 µM

**Q.** And the AUC(0-inf) ([4]; female dogs)?
**A.** 427 ng·h/mL

**Q.** What about the clearance ([4]; female dogs) of the same molecule?
**A.** 36.2 mL/min/kg

**Q.** What about the Vd ([4]; female dogs) of the same molecule?
**A.** 7.08 L/kg

**Q.** And the AUC(0-inf) ([4]; male dogs)?
**A.** 585 ng·h/mL

**Q.** And the clearance ([4]; male dogs)?
**A.** 26.4 mL/min/kg

**Q.** What about the Vd ([4]; male dogs) of the same molecule?
**A.** 3.71 L/kg

**Q.** What about the IC50 [5] of the same molecule?
**A.** > 10 µM

**Q.** And the IC50 [6]?
**A.** 3.76 µM

**Q.** And the fraction unbound at 18 h, 20 μM [7]?
**A.** 0.0372

**Q.** With `COc1cc(CCc2cc(NC(=O)c3ccc(N4CCN(C)[C@H](C)C4)cc3)[nH]n2)cc(OC)c1` [Example 1b, (R)—N-(3-(3,5-Dimethoxyphenethyl)-1H-pyrazol-5-yl)-4-(3,4-dimethylpiperazin-1-yl)benzamide] as the molecule, how does the AUC(0-inf) [1] read?
**A.** 473 ng·h/mL

**Q.** What about the clearance [1] of the same molecule?
**A.** 32.7 mL/min/kg

**Q.** What about the Vd [1] of the same molecule?
**A.** 1.74 L/kg

**Q.** And the fraction unbound at 18 h, 20 μM [2]?
**A.** 0.0062

**Q.** And the IC50 [3]?
**A.** > 10 µM

**Q.** What about the AUC(0-inf) ([4]; female dogs) of the same molecule?
**A.** 1350 ng·h/mL

**Q.** And the clearance ([4]; female dogs)?
**A.** 11.5 mL/min/kg

**Q.** What about the Vd ([4]; female dogs) of the same molecule?
**A.** 1.71 L/kg

**Q.** And the AUC(0-inf) ([4]; male dogs)?
**A.** 1240 ng·h/mL

**Q.** What about the clearance ([4]; male dogs) of the same molecule?
**A.** 12.5 mL/min/kg

**Q.** What about the Vd ([4]; male dogs) of the same molecule?
**A.** 6.55 L/kg

**Q.** And the IC50 [5]?
**A.** 8.01 µM

**Q.** What about the IC50 [6] of the same molecule?
**A.** 9.12 µM

**Q.** And the fraction unbound at 18 h, 20 μM [7]?
**A.** 0.0279
